The values that follow come from ChEMBL document CHEMBL1201862, “PubChem BioAssay data set” (2004).

Some test systems named below: SF-539; HT-29; NCI-H460; NCI-H226; HCT-15; OVCAR-8; PC-3; M14; OVCAR-3; A498; MDA-MB-435; HCT-116; NCI-H23; MCF7; SK-MEL-28; T47D; SNB-19; HOP-62.
Common to all, as to assay: DTP human tumour cell line panel, 48 h

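Where inhibition never reached the appropriate level, the endpoint shown equals the highest concentration tested. Otherwise, values were interpolated linearly from a five-concentration, 48-hour dose response in 96-well plates. Abbreviation: GI50, concentration required for 50% inhibition of growth.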 Calls of active or inactive are those of the source. Rule as the data show it: active = GI50 up to about 1.1 µM and inactive = higher.

Take `CCOc1ccc2ccc3cccnc3c2n1`: the GI50 with SF-539 was > 100 µM (inactive); in the assay on HT-29, 34.1 µM (inactive); with NCI-H460, 36.3 µM (inactive); with NCI-H226, 39 µM (inactive); in the assay with HCT-15, 54.3 µM; in the assay with OVCAR-8, 72.8 µM (inactive). Moreover, the GI50 is 34.2 µM (inactive) in the assay on PC-3; 47.2 µM (inactive) with M14; 21.9 µM (inactive) in the assay on OVCAR-3; 21 µM (inactive) in the assay on A498; 49.3 µM (inactive) in the assay with MDA-MB-435; 34 µM (inactive) in the assay on HCT-116. For the same molecule, the GI50 in the assay on NCI-H23 is 61.7 µM (inactive); with MCF7, 18.4 µM (inactive); with SK-MEL-28 it was > 100 µM (inactive); with T47D it was 32.7 µM (inactive); in the assay on SNB-19 it was > 100 µM (inactive); in the assay on HOP-62, 18.5 µM (inactive).

In the case of `N#CC1=C(N)OC2=C(CSc3ccccc32)C1c1ccc(Br)cc1` (stereo not drawn), the GI50 in the assay on SF-539 is 3.52 µM (inactive); in the assay on HT-29, 4.59 µM (inactive); in the assay on NCI-H460, 12.1 µM (inactive); with NCI-H226, 11.5 µM (inactive); in the assay with HCT-15, 4.7 µM; in the assay on OVCAR-8, 2.75 µM (inactive). The GI50 was 4.42 µM (inactive) in the assay on PC-3; 9.27 µM (inactive) in the assay with M14; 5.57 µM (inactive) in the assay on OVCAR-3; 13 µM (inactive) with A498; 2.6 µM (inactive) in the assay with MDA-MB-435; 2.96 µM (inactive) in the assay on HCT-116. For the same molecule, the GI50 in the assay on NCI-H23 is 9.75 µM (inactive); with MCF7, 3.42 µM (inactive); in the assay on SK-MEL-28, 12.9 µM (inactive); in the assay on T47D it was 4.04 µM (inactive); with SNB-19, 17.7 µM (inactive); with HOP-62 it was 14.1 µM (inactive).

For the molecule `O=[N+]([O-])c1c2nc3n(c2cc2c1nc1n2CCC1)CCC3`, the GI50 in the assay with SF-539 is > 100 µM (inactive); in the assay on HT-29 it was > 100 µM (inactive); in the assay with NCI-H460 it was > 100 µM (inactive); in the assay on NCI-H226, > 100 µM (inactive); in the assay on HCT-15, more than 100 µM; with OVCAR-8 it was > 100 µM (inactive). The GI50 with PC-3, with M14, in the assay on OVCAR-3, in the assay on A498, with MDA-MB-435 and in the assay with HCT-116 was > 100 µM (inactive) throughout. Moreover, the GI50 in the assay with NCI-H23, with MCF7, in the assay on SK-MEL-28, in the assay on T47D, in the assay with SNB-19 and in the assay on HOP-62 was > 100 µM (inactive) throughout.

Turning to `N#CC(c1ccccc1)c1cccc2ccccc12` (stereo not drawn), the GI50 in the assay with SF-539 is 30.6 µM (inactive); with HT-29, 43.2 µM (inactive); in the assay on NCI-H460 it was 35.8 µM (inactive); in the assay on NCI-H226, > 100 µM (inactive); in the assay on HCT-15 it was 37.9 µM; with OVCAR-8, 27.4 µM (inactive). Also, the GI50 was 22.5 µM (inactive) in the assay with PC-3; 30.6 µM (inactive) in the assay with M14; 29.9 µM (inactive) with OVCAR-3; 30.4 µM (inactive) in the assay with A498; 20.2 µM (inactive) with MDA-MB-435; 65 µM (inactive) in the assay with HCT-116. In addition, the GI50 in the assay with NCI-H23 is 42.1 µM (inactive); with MCF7 it was 33.6 µM (inactive); in the assay on SK-MEL-28, 69.7 µM (inactive); with T47D, 38.5 µM (inactive); in the assay on SNB-19, 53.5 µM (inactive); with HOP-62, 90.2 µM (inactive).

As to `COc1cc([C@@H]2c3cc4c(cc3[C@@H](Nc3ccccc3C(=O)c3ccccc3)[C@H]3COC(=O)[C@H]23)OCO4)cc(OC)c1OC`, the GI50 was 0.259 µM (active) in the assay on SF-539; 0.314 µM (active) in the assay on HT-29; 0.442 µM (active) in the assay on NCI-H460; 0.431 µM (active) in the assay with NCI-H226; 0.444 µM with HCT-15; 0.47 µM (active) in the assay with OVCAR-8. Besides, the GI50 in the assay on PC-3 is 0.622 µM (active); in the assay with M14, 0.729 µM (active); with OVCAR-3, 0.785 µM (active); in the assay on A498, 0.149 µM (active); with MDA-MB-435 it was 0.27 µM (active); in the assay on HCT-116, 0.321 µM (active). Further, the GI50 with NCI-H23 is 0.668 µM (active); with MCF7, 0.379 µM (active); with SK-MEL-28 it was 0.472 µM (active); in the assay on T47D, > 100 µM (inactive); with SNB-19, 1.37 µM (inactive); in the assay on HOP-62, 2.11 µM (inactive).

Take `CCOC(=O)C1=NN(c2ccccc2)C(=O)/C1=C\NC(=S)C(N)=S`: the GI50 in the assay on SF-539 is 23.2 µM (inactive); with HT-29, 41.8 µM (inactive); in the assay with NCI-H460 it was 49.3 µM (inactive); with NCI-H226 it was 54.5 µM (inactive); with HCT-15, 34.1 µM; in the assay on OVCAR-8, 45.5 µM (inactive). Besides, the GI50 in the assay on PC-3 is 47.5 µM (inactive); in the assay on M14 it was 26.5 µM (inactive); in the assay with OVCAR-3, 38.5 µM (inactive); in the assay with A498, > 100 µM (inactive); in the assay with MDA-MB-435, 33.8 µM (inactive); with HCT-116 it was 20.5 µM (inactive). The GI50 in the assay with NCI-H23 is 87.1 µM (inactive); in the assay with MCF7 it was 36.1 µM (inactive); in the assay with SK-MEL-28, 39.8 µM (inactive); with T47D it was 13.1 µM (inactive); in the assay on SNB-19 it was 64.9 µM (inactive); in the assay with HOP-62, > 100 µM (inactive).

Regarding `COC(=O)c1c(OC(C)=O)ccc2c1c1c(n2C)C(=O)c2ccccc2C1=O`, the GI50 was 19.1 µM (inactive) in the assay on SF-539; 46.8 µM (inactive) in the assay on HT-29; 22.4 µM (inactive) in the assay on NCI-H460; 38.9 µM (inactive) in the assay with NCI-H226; 24.8 µM in the assay with HCT-15; 25.8 µM (inactive) in the assay with OVCAR-8. Besides, the GI50 in the assay with PC-3 was 27.2 µM (inactive); with M14, 35.2 µM (inactive); in the assay on OVCAR-3, 17.9 µM (inactive); in the assay with A498, 13.5 µM (inactive); in the assay on MDA-MB-435 it was 23.9 µM (inactive); with HCT-116, 20.5 µM (inactive). Also, the GI50 in the assay on NCI-H23 is 19.7 µM (inactive); in the assay with MCF7, 18.7 µM (inactive); in the assay with SK-MEL-28 it was 31.8 µM (inactive); in the assay on T47D, 4.81 µM (inactive); in the assay on SNB-19, 33.7 µM (inactive); in the assay on HOP-62 it was 17.3 µM (inactive).

For `C=CCN(C(C)=O)c1cc(OCc2ccccc2)c2c(c1)c(C)cn2S(=O)(=O)c1ccccc1`, the GI50 with SF-539 was 11.5 µM (inactive); in the assay with HT-29, 5.55 µM (inactive); in the assay on NCI-H460, 4.75 µM (inactive); in the assay with NCI-H226 it was 7.29 µM (inactive); in the assay with HCT-15, 4.79 µM; in the assay with OVCAR-8 it was 5.57 µM (inactive). For the same molecule, the GI50 in the assay on PC-3 was 4.21 µM (inactive); in the assay with M14 it was 5.4 µM (inactive); with OVCAR-3, 4.15 µM (inactive); with A498 it was 5.16 µM (inactive); in the assay on MDA-MB-435, 5.11 µM (inactive); in the assay with HCT-116, 3.85 µM (inactive). The GI50 with NCI-H23 is 7.8 µM (inactive); with MCF7, 3.93 µM (inactive); with SK-MEL-28, 21.2 µM (inactive); with T47D, 3.26 µM (inactive); in the assay with SNB-19 it was 7.08 µM (inactive); in the assay on HOP-62, 11.5 µM (inactive).

For the molecule `Nc1ncnc2c1ncn2C1OC(CO)=CC1O` (stereo not drawn), the GI50 with SF-539 is > 37.5 µM (inactive); with HT-29, > 37.5 µM (inactive); in the assay on NCI-H460 it was > 37.5 µM (inactive); in the assay on NCI-H226, > 37.5 µM (inactive); in the assay on HCT-15, more than 37.5 µM; in the assay on OVCAR-8 it was > 37.5 µM (inactive). In addition, the GI50 in the assay with PC-3, in the assay on M14, with OVCAR-3, with A498, in the assay on MDA-MB-435 and in the assay on HCT-116 was > 37.5 µM (inactive) in each case. Further, the GI50 in the assay on NCI-H23, in the assay on MCF7, in the assay with SK-MEL-28, in the assay on T47D, in the assay with SNB-19 and with HOP-62 was > 37.5 µM (inactive) throughout.

Consider `O=C(O)CN1C=C(C(=O)c2cc3ccccc3n2S(=O)(=O)c2ccccc2)CCC1`, for which the GI50 in the assay with SF-539 was 39.7 µM (inactive); with HT-29 it was 50 µM (inactive); in the assay on NCI-H460 it was 96.2 µM (inactive); in the assay on NCI-H226 it was 46.8 µM (inactive); in the assay on HCT-15 it was 49.2 µM; with OVCAR-8 it was 64.6 µM (inactive). Further, the GI50 in the assay on PC-3 was 50.4 µM (inactive); with M14 it was 69.8 µM (inactive); in the assay with OVCAR-3, 51.9 µM (inactive); in the assay on A498, 69.3 µM (inactive); with MDA-MB-435, 43.5 µM (inactive); in the assay on HCT-116, 57.3 µM (inactive). Further, the GI50 in the assay on NCI-H23 is 50.6 µM (inactive); with MCF7, 49.9 µM (inactive); in the assay with SK-MEL-28 it was > 100 µM (inactive); in the assay on T47D it was 28.6 µM (inactive); with SNB-19 it was > 100 µM (inactive); in the assay on HOP-62, > 100 µM (inactive).

`O=C1NC2CCCCC2N=C1CC(=O)c1ccc(Br)cc1` (stereo not drawn): the GI50 was 26.8 µM (inactive) in the assay on SF-539; > 100 µM (inactive) in the assay on HT-29; 3.4 µM (inactive) with NCI-H460; 4.22 µM (inactive) in the assay on NCI-H226; 29.4 µM with HCT-15; 4.19 µM (inactive) in the assay on OVCAR-8. Also, the GI50 in the assay with PC-3 is 32.7 µM (inactive); in the assay on M14 it was > 100 µM (inactive); with OVCAR-3, > 100 µM (inactive); in the assay with A498 it was > 100 µM (inactive); with MDA-MB-435 it was > 100 µM (inactive); in the assay with HCT-116 it was 66.2 µM (inactive). For the same molecule, the GI50 with NCI-H23 was > 100 µM (inactive); in the assay on MCF7, 18 µM (inactive); in the assay on SK-MEL-28 it was > 100 µM (inactive); in the assay on T47D, 3.94 µM (inactive); with SNB-19, > 100 µM (inactive); in the assay with HOP-62 it was 31.8 µM (inactive).

The term GI50 denotes the concentration giving 50% growth inhibition.
